Source: the NIST ThermoML archive (doi:10.1021/acs.jced.7b01091)

Settings: Liquid; for vapor or sublimation pressure: Closed cell (Static) method; for mass density: 101.33 kPa, Vibrating tube method

ClCCCl [1,2-dichloroethane]
Settings	mass density [kg/m3]	vapor or sublimation pressure [kPa]
284.87 K	–	5.38
294.83 K	–	8.97
294.84 K	–	8.96
298.15 K	1245.68	10.53
304.82 K	–	14.34
314.81 K	–	22.19
314.83 K	–	22.18
324.83 K	–	33.27
334.82 K	–	48.47
344.81 K	–	67.97
354.89 K	–	94.96

C1COCO1 [1,3-dioxolane]
Settings	mass density [kg/m3]	vapor or sublimation pressure [kPa]
275 K	–	3.86
284.94 K	–	6.74
294.82 K	–	11.33
298.15 K	1058.76	13.31
304.79 K	–	18.26
314.76 K	–	28.28
324.9 K	–	43.07
334.85 K	–	62.99
344.82 K	–	89.85
350.77 K	–	109.39

C1COCCO1 [1,4-dioxane]
Settings	mass density [kg/m3]	vapor or sublimation pressure [kPa]
284.59 K	–	2.23
294.82 K	–	3.92
298.15 K	1027.87	4.68
304.81 K	–	6.58
314.76 K	–	10.54
324.92 K	–	16.71
334.92 K	–	25.52
344.89 K	–	37.55
354.92 K	–	54.11

C1CCOCC1 [tetrahydropyran]
Settings	mass density [kg/m3]	vapor or sublimation pressure [kPa]
275.59 K	–	2.85
285.53 K	–	4.91
295.42 K	–	8.07
298.15 K	879.16	9.25
305.37 K	–	12.85
315.36 K	–	19.9
325.65 K	–	29.99
335.6 K	–	43.81
345.59 K	–	61.17
355.49 K	–	84.29
